Measurements as given in patent publication US9567358B2, “Methods of treatment using N-(3-fluorophenyl)-2-{3-[(7-{3-[ethyl(2-hydroxyethyl)amino]propoxy}-quinazolin-4-yl)amino]-1H-pyrazol-5-yl}acetamide” (AstraZeneca AB, priority 2002, dated 2017).

How the values were obtained:
[1] = target: T1, Aurora-A (Homo sapiens, UniProt O14965); assay: In vitro Aurora-A kinase inhibition test; assay type: biochemical
T1 construct: 6 histidine tag with spacer region and rTEV protease cleavage site (pFastBac HTc) (N); made in house; host or cells: Spodoptera frugiperda Sf21 insect cells (baculovirus)
T1 sequence (O14965 1-403): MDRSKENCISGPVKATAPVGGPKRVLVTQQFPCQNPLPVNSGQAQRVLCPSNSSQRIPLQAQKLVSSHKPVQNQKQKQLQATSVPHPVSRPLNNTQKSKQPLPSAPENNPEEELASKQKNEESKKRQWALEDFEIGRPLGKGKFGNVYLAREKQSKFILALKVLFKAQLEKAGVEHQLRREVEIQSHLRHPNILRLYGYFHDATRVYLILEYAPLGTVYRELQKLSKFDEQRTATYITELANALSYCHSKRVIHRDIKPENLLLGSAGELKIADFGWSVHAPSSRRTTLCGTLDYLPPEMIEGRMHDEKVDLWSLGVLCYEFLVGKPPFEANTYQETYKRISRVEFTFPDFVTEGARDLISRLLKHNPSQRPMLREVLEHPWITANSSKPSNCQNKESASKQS

[2] = target: T2, Aurora-B (Homo sapiens, UniProt Q96GD4); assay: In vitro Aurora-B kinase inhibition test; assay type: biochemical; details: recombinant Aurora-B, 33P-ATP peptide substrate filter assay, 60 minutes, room temperature; read-out: concentration giving 50% inhibition of enzyme activity
T2 construct: 6-histidine tag; made in house; host or cells: Spodoptera frugiperda Sf21 insect cells (baculovirus)
T2 sequence (Q96GD4 whole entry): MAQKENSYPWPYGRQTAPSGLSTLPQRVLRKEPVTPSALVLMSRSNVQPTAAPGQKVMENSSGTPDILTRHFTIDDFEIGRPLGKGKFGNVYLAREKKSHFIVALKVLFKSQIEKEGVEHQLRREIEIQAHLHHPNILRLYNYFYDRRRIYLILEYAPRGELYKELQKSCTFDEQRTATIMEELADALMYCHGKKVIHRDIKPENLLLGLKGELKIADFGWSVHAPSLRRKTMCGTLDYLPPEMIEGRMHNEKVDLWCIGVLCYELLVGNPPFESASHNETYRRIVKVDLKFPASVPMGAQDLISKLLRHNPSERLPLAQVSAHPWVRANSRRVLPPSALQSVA
From the text: (b) In Vitro Aurora-B Kinase Inhibition Test
This assay determines the ability of a test compound to inhibit serine-threonine kinase activity. DNA encoding Aurora-B may be obtained by total gene synthesis or by cloning. This DNA may then be expressed in a suitable expression system to obtain polypeptide with serine-threonine kinase activity. In the case of Aurora-B, the coding sequence was isolated from cDNA by polymerase chain reaction (PCR) and cloned into the pFastBac system in a manner similar to that described above for Aurora-A (i.e. to direct expression of a 6-histidine tagged Aurora-B protein).
For the large scale expression of Aurora-B kinase activity, Sf21 insect cells were grown at 28° C. in TC100 medium supplemented with 10% foetal calf serum (Viralex) and 0.2% F68 Pluronic (Sigma) on a Wheaton roller rig at 3 r.p.m. When the cell density reached 1.2×10^6 cells ml^−1 they were infected with plaque-pure Aurora-B recombinant virus at a multiplicity of infection of 1 and harvested 48 hours later. All subsequent purification steps were performed at 4° C. […]

[3] = tested on: human tumour cell line SW620; assay: In vitro cell proliferation assay (BrdU incorporation); assay type: cell-based; details: SW-620, SW620 cells, 48 hours with compound, 2 hour BrdU labelling, read-out: active at (concentration giving 50% inhibition of BrdU incorporation)
From the text: (c) In Vitro Cell Proliferation Assay
This and other assays can be used to determine the ability of a test compound to inhibit the growth of adherent mammalian cell lines, for example the human tumour cell line SW620 (ATCC CCL-227). This assay determines the ability of at test compound to inhibit the incorporation of the thymidine analogue, 5′-bromo-2′-deoxy-uridine (BrdU) into cellular DNA. SW620 or other adherent cells were typically seeded at 1×10^5 cells per well in L-15 media (GIBCO) plus 5% foetal calf serum, 1% L-glutamine (100 μl/well) in 96 well tissue culture treated 96 well plates (Costar) and allowed to adhere overnight. […] The optical density of the wells was then determined at 690 nm wavelength using a Titertek Multiscan plate reader. […]

COc1cc2c(Nc3cc(CC(=O)Nc4cccc(F)c4)[nH]n3)ncnc2cc1OCCCN1CCC[C@H]1COP(=O)(O)O [Compound 5, {(2S)-1-[3-({4-[(5-{2-[(3-fluorophenyl)amino]-2-oxoethyl}-1H-pyrazol-3-yl)amino]-6-methoxyquinazolin-7-yl}oxy)propyl]pyrrolidin-2-yl}methyl dihydrogen phosphate]
IC50 [1]: 5.5 nM | IC50 [2]: 1.6 nM | IC50 [3]: 0.1 nM
